Here are results for 11 molecules from publication PMC5855875, “Teixobactin analogues reveal enduracididine to be non-essential for highly potent antibacterial activity and lipid II binding” (Chemical Science, 2017).

Bridge positions count the residues as written; N and C are the ends. Square brackets hold non-standard residues; d marks the D form. Peptide text beside a SMILES is read from it. d(aIle) = CC[C@H](C)[C@@H](N)C(=O)O; dNMeF = CN[C@H](Cc1ccccc1)C(=O)O

The test system of the first assay is MRSA ATCC 33591. In words: microbe, parasite or virus in culture. As to conditions: ATCC 33591, 24 h. How it is done:
were grown in Mueller Hinton broth (Oxoid) in triplicate. All incubations were at 37°C. Dilutions were carried out in triplicate. 100 µl of autoclaved Mueller Hinton broth was added to wells 2-12 in a 96-well plate. 200 µl of the peptide was added to well one at a concentration of 256 µg/mL. 100µl of peptide in well one was taken up and pipetted into well two. The mixture was then mixed via pipetting before 100µl was taken up and pipetted into well three. This process was repeated up to well 11. Once […]
peptide present. Thus, the concentrations (in µg/mL) were: 256, 128, 64, 32, 16, 8, 4, 2, 1, 0.5, 0.25 and no peptide present. Each well was then inoculated with 100µl of bacteria that had been diluted to an […]
This was repeated three times. The 96-well plates were then incubated at 37°C for 24 hours. The MIC was determined to be the lowest concentration at which there was no growth visible. […]
was repeated at an altered initial concentration of 64 µg/ml. Therefore, the new concentrations for MIC […]
VIII. MIC testing (extended panel)
Bacterial cultures were grown overnight i n Mueller-Hinton Agar (MHA) plates and adjusted to a final concentration of 10 5 – 106 CFU/ml. 100 µl of inoculum in Meuller -Hinton broth (MHB) was mixed with equal volume of peptides (dissolved in MHB) at 2x their concentration in a 96 well plate. In parallel experiments, MIC values were determined in the media containing polysorbate 80 (0 .002%, v/v) to […]
Take `CC[C@H](C)[C@H](NC(=O)[C@@H](C)NC(C)=O)C(=O)N[C@@H](CO)C(=O)N[C@H](CCC(N)=O)C(=O)N[C@@H](C(=O)N[C@H](C(=O)N[C@@H](CO)C(=O)N[C@H]1C(=O)N[C@@H](C)C(=O)N[C@@H](CCCNC(=N)N)C(=O)N[C@@H]([C@@H](C)CC)C(=O)O[C@H]1C)[C@@H](C)CC)[C@@H](C)CC` [Compound 1, Ac-D-Ala1-Arg10-teixobactin]: the MIC was more than 128 μg mL^–1. Still for that read-out and setting: next, `CC[C@H](C)[C@H](NC(=O)[C@H](NC(=O)[C@@H](CCC(N)=O)NC(=O)[C@H](CO)NC(=O)[C@H](C)NC(=O)[C@@H](Cc1ccccc1)NC)[C@@H](C)CC)C(=O)N[C@@H](CO)C(=O)N[C@H]1C(=O)N[C@@H](C)C(=O)N[C@@H](CCCNC(=N)N)C(=O)N[C@@H]([C@@H](C)CC)C(=O)O[C@H]1C` [Compound 2, Ala2-Arg10-teixobactin] (H-[dNMeF]AS[dQ][d(aIle)]IS[dT]ARI; ester 8-C): more than 128 μg mL^–1. Same read-out and setting: next, `CC[C@H](C)[C@H](NC(=O)[C@@H](Cc1ccccc1)NC)C(=O)N[C@@H](C)C(=O)N[C@H](CCC(N)=O)C(=O)N[C@@H](C(=O)N[C@H](C(=O)N[C@@H](CO)C(=O)N[C@H]1C(=O)N[C@@H](C)C(=O)N[C@@H](CCCNC(=N)N)C(=O)N[C@@H]([C@@H](C)CC)C(=O)O[C@H]1C)[C@@H](C)CC)[C@@H](C)CC` [Compound 3, Ala3-Arg10-teixobactin] (H-[dNMeF]IA[dQ][d(aIle)]IS[dT]ARI; ester 8-C): 1–2 μg mL^–1; `CC[C@H](C)[C@H](NC(=O)[C@@H](Cc1ccccc1)NC)C(=O)N[C@@H](CO)C(=O)N[C@H](C)C(=O)N[C@@H](C(=O)N[C@H](C(=O)N[C@@H](CO)C(=O)N[C@H]1C(=O)N[C@@H](C)C(=O)N[C@@H](CCCNC(=N)N)C(=O)N[C@@H]([C@@H](C)CC)C(=O)O[C@H]1C)[C@@H](C)CC)[C@@H](C)CC` [Compound 4, D-Ala4-Arg10-teixobactin] (H-[dNMeF]IS[dA][d(aIle)]IS[dT]ARI; ester 8-C): 2–4 μg mL^–1; `CC[C@H](C)[C@H](NC(=O)[C@@H](C)NC(=O)[C@@H](CCC(N)=O)NC(=O)[C@H](CO)NC(=O)[C@@H](NC(=O)[C@@H](Cc1ccccc1)NC)[C@@H](C)CC)C(=O)N[C@@H](CO)C(=O)N[C@H]1C(=O)N[C@@H](C)C(=O)N[C@@H](CCCNC(=N)N)C(=O)N[C@@H]([C@@H](C)CC)C(=O)O[C@H]1C` [Compound 5, D-Ala5-Arg10-teixobactin] (HELM PEPTIDE1{[CN[C@H](Cc1ccccc1)C(=O)[*:2]].I.S.[dQ].[dA].I.S.[C[C@H](O[*:3])[C@@H](N[*:1])C(=O)[*:2]].A.R.I}$PEPTIDE1,PEPTIDE1,8:R3-11:R2$$$V2.0): 64–128 μg mL^–1.

The molecule `CC[C@H](C)[C@H](NC(=O)[C@@H](Cc1ccccc1)NC)C(=O)N[C@@H](CO)C(=O)N[C@H](CCC(N)=O)C(=O)N[C@@H](C(=O)N[C@@H](C)C(=O)N[C@@H](CO)C(=O)N[C@H]1C(=O)N[C@@H](C)C(=O)N[C@@H](CCCNC(=N)N)C(=O)N[C@@H]([C@@H](C)CC)C(=O)O[C@H]1C)[C@@H](C)CC` [Compound 6, Ala6-Arg10-teixobactin] (H-[dNMeF]IS[dQ][d(aIle)]AS[dT]ARI; ester 8-C) gave an MIC of more than 128 μg mL^–1. With `CC[C@H](C)[C@H](NC(=O)[C@@H](Cc1ccccc1)NC)C(=O)N[C@@H](CO)C(=O)N[C@H](CCC(N)=O)C(=O)N[C@@H](C(=O)N[C@H](C(=O)N[C@@H](C)C(=O)N[C@H]1C(=O)N[C@@H](C)C(=O)N[C@@H](CCCNC(=N)N)C(=O)N[C@@H]([C@@H](C)CC)C(=O)O[C@H]1C)[C@@H](C)CC)[C@@H](C)CC` [Compound 7, Ala7-Arg10-teixobactin] (H-[dNMeF]IS[dQ][d(aIle)]IA[dT]ARI; ester 8-C), the MIC is recorded as 16–32 μg mL^–1. With `CC[C@H](C)[C@H](NC(=O)[C@@H](Cc1ccccc1)NC)C(=O)N[C@@H](CO)C(=O)N[C@H](CCC(N)=O)C(=O)N[C@@H](C(=O)N[C@H](C(=O)N[C@@H](CO)C(=O)N[C@H]1C(=O)N[C@@H](C)C(=O)N[C@H](C)C(=O)N[C@@H]([C@@H](C)CC)C(=O)O[C@H]1C)[C@@H](C)CC)[C@@H](C)CC` [Compound 9, D-Ala10-teixobactin] (H-[dNMeF]IS[dQ][d(aIle)]IS[dT]A[dA]I; ester 8-C), the MIC was 32 μg mL^–1.

On to `CC[C@H](C)[C@H](NC(=O)[C@@H](Cc1ccccc1)NC)C(=O)N[C@@H](CO)C(=O)N[C@H](CCC(N)=O)C(=O)N[C@@H](C(=O)N[C@H](C(=O)N[C@@H](CO)C(=O)N[C@H]1C(=O)N[C@@H](C)C(=O)NCC(=O)N[C@@H]([C@@H](C)CC)C(=O)O[C@H]1C)[C@@H](C)CC)[C@@H](C)CC` [Compound 10, Gly10-teixobactin] (H-[dNMeF]IS[dQ][d(aIle)]IS[dT]AGI; ester 8-C), for which the MIC stood at 2 μg mL^–1. Same read-out and setting: next, `CC[C@H](C)[C@H](NC(=O)[C@@H](Cc1ccccc1)NC)C(=O)N[C@@H](CO)C(=O)N[C@H](CCC(N)=O)C(=O)N[C@@H](C(=O)N[C@H](C(=O)N[C@@H](CO)C(=O)N[C@H]1C(=O)N[C@@H](C)C(=O)N[C@@H](Cc2ccccc2)C(=O)N[C@@H]([C@@H](C)CC)C(=O)O[C@H]1C)[C@@H](C)CC)[C@@H](C)CC` [Compound 15, Phe10-teixobactin] (H-[dNMeF]IS[dQ][d(aIle)]IS[dT]AFI; ester 8-C): 2 μg mL^–1.

The assay is the same for the next values; noted with them: MRSA ATCC 33591; Mueller Hinton broth (Oxoid); peptides in DMSO containing 0.002% polysorbate 80; 37°C, 24 h; triplicate.
For `CC[C@H](C)[C@H](NC(=O)[C@@H](Cc1ccccc1)NC)C(=O)N[C@@H](CO)C(=O)N[C@H](CCC(N)=O)C(=O)N[C@@H](C(=O)N[C@H](C(=O)N[C@@H](CO)C(=O)N[C@H]1C(=O)N[C@@H](C)C(=O)N[C@@H](CO)C(=O)N[C@@H]([C@@H](C)CC)C(=O)O[C@H]1C)[C@@H](C)CC)[C@@H](C)CC` [Compound 14, Ser10-teixobactin] (H-[dNMeF]IS[dQ][d(aIle)]IS[dT]ASI; ester 8-C), the MIC stood at 16 μg mL^–1.

The assay is the same for the next values; noted with them: from MIC against MRSA ATCC 33591.
On to `CC[C@H](C)[C@H](NC(=O)[C@@H](Cc1ccccc1)NC)C(=O)N[C@@H](CO)C(=O)N[C@H](CCC(N)=O)C(=O)N[C@@H](C(=O)N[C@H](C(=O)N[C@@H](CO)C(=O)N[C@H]1C(=O)N[C@@H](C)C(=O)N[C@H](C)C(=O)N[C@@H]([C@@H](C)CC)C(=O)O[C@H]1C)[C@@H](C)CC)[C@@H](C)CC` [Compound 9, D-Ala10-teixobactin] (H-[dNMeF]IS[dQ][d(aIle)]IS[dT]A[dA]I; ester 8-C), for which the “times lower antibacterial activity than Arg10-teixobactin” value is given as 16 times.

For `CC[C@H](C)[C@H](NC(=O)[C@@H](Cc1ccccc1)NC)C(=O)N[C@@H](CO)C(=O)N[C@H](CCC(N)=O)C(=O)N[C@@H](C(=O)N[C@H](C(=O)N[C@@H](CO)C(=O)N[C@H]1C(=O)N[C@@H](C)C(=O)N[C@@H](CO)C(=O)N[C@@H]([C@@H](C)CC)C(=O)O[C@H]1C)[C@@H](C)CC)[C@@H](C)CC` [Compound 14, Ser10-teixobactin] (H-[dNMeF]IS[dQ][d(aIle)]IS[dT]ASI; ester 8-C), the “times lower antibacterial activity than Arg10-teixobactin” value was 8 times.
